Paper PMC5218480 (PLoS ONE, 2017)

Test system: MV-4-11 cells
Assay: Gene expression microarray analysis (Affymetrix PrimeView) and GSEA
Type: cell-based, human
Parameters: RFU PODN (11730768_x_at) / Fold change /veh PODN (11730768_x_at) / RFU LINC00158 (11744669_a_at) / Fold change /veh LINC00158 (11744669_a_at) / RFU DUSP10 (11751237_a_at) / Fold change /veh DUSP10 (11751237_a_at) / RFU ID3 (11757404_x_at) / Fold change /veh ID3 (11757404_x_at) / RFU PLEKHG5 (11737974_s_at) / Fold change /veh PLEKHG5 (11737974_s_at) / RFU LRRC4B (11730491_at) / Fold change /veh LRRC4B (11730491_at) / RFU GIMAP4 (11747438_a_at) / Fold change /veh GIMAP4 (11747438_a_at) / RFU KRT8 (11758183_x_at) / Fold change /veh KRT8 (11758183_x_at) / RFU CNN1 (11734310_a_at) / Fold change /veh CNN1 (11734310_a_at) / RFU VPS37D (11726825_at) / Fold change /veh VPS37D (11726825_at) / RFU C10orf10 (11716522_x_at) / Fold change /veh C10orf10 (11716522_x_at) / RFU KIR2DL2 /// KIR2DL4 /// KIR2DL5A /// KIR2DL5B /// KIR2DS1 /// KIR2DS2 /// KIR2DS3 /// KIR2DS4 /// KIR3DL3 /// KIR3DL3 /// KIR3DS1 (11738374_at) / Fold change /veh KIR2DL2 /// KIR2DL4 /// KIR2DL5A /// KIR2DL5B /// KIR2DS1 /// KIR2DS2 /// KIR2DS3 /// KIR2DS4 /// KIR3DL3 /// KIR3DL3 /// KIR3DS1 (11738374_at) / RFU C1QL1 (11718748_at) / Fold change /veh C1QL1 (11718748_at) / RFU TMPRSS4 (11747572_a_at) / Fold change /veh TMPRSS4 (11747572_a_at) / RFU HAMP (11756126_x_at) / Fold change /veh HAMP (11756126_x_at) / RFU RNFT2 (11725882_a_at) / Fold change /veh RNFT2 (11725882_a_at) / RFU NR4A2 (11747474_a_at) / Fold change /veh NR4A2 (11747474_a_at) / RFU ABCC12 (11746883_a_at) / Fold change /veh ABCC12 (11746883_a_at) / RFU TMEM136 (11760407_x_at) / Fold change /veh TMEM136 (11760407_x_at) / RFU CLDN22 /// WWC2 (11732394_at) / Fold change /veh CLDN22 /// WWC2 (11732394_at) / RFU HLA-DPB1 (11760878_x_at) / Fold change /veh HLA-DPB1 (11760878_x_at) / RFU SPINT1 (11716480_a_at) / Fold change /veh SPINT1 (11716480_a_at) / RFU GAP43 (11754022_s_at) / Fold change /veh GAP43 (11754022_s_at) / RFU A4GNT (11735810_at) / Fold change /veh A4GNT (11735810_at) / RFU PRB3 (11715151_x_at) / Fold change /veh PRB3 (11715151_x_at) / RFU TUBB4B (11761932_at) / Fold change /veh TUBB4B (11761932_at) / RFU CAPN14 (11732068_a_at) / Fold change /veh CAPN14 (11732068_a_at) / RFU TMCC2 (11721928_a_at) / Fold change /veh TMCC2 (11721928_a_at) / RFU IRGQ (11745062_a_at) / Fold change /veh IRGQ (11745062_a_at) / RFU FAM174B (11720279_a_at) / Fold change /veh FAM174B (11720279_a_at) / RFU TMPRSS4 (11748680_a_at) / Fold change /veh TMPRSS4 (11748680_a_at) / RFU FAM212B (11763350_a_at) / Fold change /veh FAM212B (11763350_a_at) / RFU PLEKHG5 (11743358_a_at) / Fold change /veh PLEKHG5 (11743358_a_at) / RFU ZSCAN30 (11745921_a_at) / Fold change /veh ZSCAN30 (11745921_a_at) / RFU CMKLR1 (11741424_a_at) / Fold change /veh CMKLR1 (11741424_a_at) / RFU LOC101060620 /// MAPK8IP1 (11723275_at) / Fold change /veh LOC101060620 /// MAPK8IP1 (11723275_at) / RFU SPTSSB (11747773_x_at) / Fold change /veh SPTSSB (11747773_x_at) / RFU PRSS12 (11739890_at) / Fold change /veh PRSS12 (11739890_at) / RFU BIN1 (11741810_x_at) / Fold change /veh BIN1 (11741810_x_at) / RFU WNT11 (11732464_a_at) / Fold change /veh WNT11 (11732464_a_at) / RFU C10orf10 (11716521_a_at) / Fold change /veh C10orf10 (11716521_a_at) / RFU C5orf56 (11738089_at) / Fold change /veh C5orf56 (11738089_at) / RFU CYB561 (11721691_x_at) / Fold change /veh CYB561 (11721691_x_at) / RFU ANKRD19P (11752326_a_at) / Fold change /veh ANKRD19P (11752326_a_at) / RFU OR2T12 /// OR2T33 /// OR2T8 (11738714_s_at) / Fold change /veh OR2T12 /// OR2T33 /// OR2T8 (11738714_s_at) / RFU VCAN (11748164_a_at) / Fold change /veh VCAN (11748164_a_at) / RFU JSRP1 (11732532_at) / Fold change /veh JSRP1 (11732532_at) / RFU KRTAP10-11 (11738290_x_at) / Fold change /veh KRTAP10-11 (11738290_x_at) / RFU MYO3A (11730013_a_at) / Fold change /veh MYO3A (11730013_a_at) / RFU EBF3 (11725865_a_at) / Fold change /veh EBF3 (11725865_a_at) / RFU CAMK2N1 (11719241_x_at) / Fold change /veh CAMK2N1 (11719241_x_at) / RFU C5orf56 (11738088_a_at) / Fold change /veh C5orf56 (11738088_a_at) / RFU OLFML3 (11715873_a_at) / Fold change /veh OLFML3 (11715873_a_at) / RFU LOC100653217 /// NTM (11731650_a_at) / Fold change /veh LOC100653217 /// NTM (11731650_a_at) / RFU MAPK11 (11762145_a_at) / Fold change /veh MAPK11 (11762145_a_at) / RFU FIZ1 (11724087_x_at) / Fold change /veh FIZ1 (11724087_x_at) / RFU OASL (11726364_x_at) / Fold change /veh OASL (11726364_x_at) / RFU SOX15 (11748057_x_at) / Fold change /veh SOX15 (11748057_x_at) / RFU CD79A (11719716_a_at) / Fold change /veh CD79A (11719716_a_at) / RFU HIST1H1D (11736915_at) / Fold change /veh HIST1H1D (11736915_at) / RFU CASKIN2 (11723855_a_at) / Fold change /veh CASKIN2 (11723855_a_at) / RFU LOC730098 (11760151_x_at) / Fold change /veh LOC730098 (11760151_x_at) / RFU OR4N2 (11742367_at) / Fold change /veh OR4N2 (11742367_at) / RFU PRRT2 (11749266_a_at) / Fold change /veh PRRT2 (11749266_a_at) / RFU SNX32 (11753110_a_at) / Fold change /veh SNX32 (11753110_a_at) / RFU CDHR5 (11726645_a_at) / Fold change /veh CDHR5 (11726645_a_at) / RFU RCAN1 (11760418_a_at) / Fold change /veh RCAN1 (11760418_a_at) / RFU FAM167A (11723789_a_at) / Fold change /veh FAM167A (11723789_a_at) / RFU FAM26E (11764081_at) / Fold change /veh FAM26E (11764081_at) / RFU ISYNA1 (11749810_s_at) / Fold change /veh ISYNA1 (11749810_s_at) / RFU ACY1 (11761880_at) / Fold change /veh ACY1 (11761880_at) / RFU 11764098_at / Fold change /veh 11764098_at / RFU SAMD14 (11745864_x_at) / Fold change /veh SAMD14 (11745864_x_at) / RFU NPB (11741838_a_at) / Fold change /veh NPB (11741838_a_at) / RFU TMPRSS6 (11731388_a_at) / Fold change /veh TMPRSS6 (11731388_a_at) / RFU KRTAP10-2 (11738614_at) / Fold change /veh KRTAP10-2 (11738614_at) / RFU ARHGAP8 /// PRR5-ARHGAP8 (11727945_x_at) / Fold change /veh ARHGAP8 /// PRR5-ARHGAP8 (11727945_x_at) / RFU KRTAP5-7 /// NADSYN1 (11734609_at) / Fold change /veh KRTAP5-7 /// NADSYN1 (11734609_at) / RFU RASL12 (11751679_a_at) / Fold change /veh RASL12 (11751679_a_at) / RFU CDKN2B (11736163_a_at) / Fold change /veh CDKN2B (11736163_a_at) / RFU PRF1 (11729649_at) / Fold change /veh PRF1 (11729649_at) / RFU, ZNF638 /// ZNF638-IT1 / Fold change vs veh, ZNF638 /// ZNF638-IT1 / RFU, PANK3 / Fold change vs veh, PANK3 / RFU, SH3YL1 / Fold change vs veh, SH3YL1 / RFU, ZEB2 / Fold change vs veh, ZEB2 / RFU, NRIP1 / Fold change vs veh, NRIP1 / RFU, PTTG1IP / Fold change vs veh, PTTG1IP / RFU, CAPN2 / Fold change vs veh, CAPN2 / RFU, MED14 / Fold change vs veh, MED14 / RFU, SNORA58 / Fold change vs veh, SNORA58 / RFU, C1orf63 / Fold change vs veh, C1orf63 / RFU, LRRFIP1 / Fold change vs veh, LRRFIP1 / RFU, NDUFAF7 / Fold change vs veh, NDUFAF7 / RFU, SLC12A2 / Fold change vs veh, SLC12A2 / RFU, IBTK / Fold change vs veh, IBTK / RFU, ESF1 / Fold change vs veh, ESF1 / Fold change vs veh, TMEM50B / RFU, TAOK1 / Fold change vs veh, TAOK1 / RFU, ACBD3 / Fold change vs veh, ACBD3 / RFU, TMA16 / Fold change vs veh, TMA16 / RFU, RWDD3 / Fold change vs veh, RWDD3 / RFU, BCAT1 / Fold change vs veh, BCAT1 / RFU, EDEM3 / Fold change vs veh, EDEM3 / RFU, TMEM33 / Fold change vs veh, TMEM33 / RFU, WDR75 / Fold change vs veh, WDR75 / RFU, AHCTF1 / Fold change vs veh, AHCTF1 / RFU, TFRC / Fold change vs veh, TFRC / RFU, ZDHHC17 / Fold change vs veh, ZDHHC17 / RFU, NOM1 / Fold change vs veh, NOM1 / RFU, ARL8B / Fold change vs veh, ARL8B / RFU, ZBTB11 / Fold change vs veh, ZBTB11 / RFU, TAMM41 / Fold change vs veh, TAMM41 / RFU, KIAA1704 /// LOC100996395 / Fold change vs veh, KIAA1704 /// LOC100996395 / RFU, ING1 / Fold change vs veh, ING1 / RFU, TRMT61B / Fold change vs veh, TRMT61B / RFU, FUBP3 / Fold change vs veh, FUBP3 / RFU, TP53 / Fold change vs veh, TP53 / RFU, TNKS2 / Fold change vs veh, TNKS2 / RFU, ZFP14 / Fold change vs veh, ZFP14 / RFU, ACTR2 / Fold change vs veh, ACTR2 / RFU, PPP3R1 / Fold change vs veh, PPP3R1 / RFU, PIK3R1 / Fold change vs veh, PIK3R1 / RFU, HNRNPA1 / Fold change vs veh, HNRNPA1 / RFU, RNF170 / Fold change vs veh, RNF170 / RFU, ZNF28 / Fold change vs veh, ZNF28 / RFU, RNGTT / Fold change vs veh, RNGTT / RFU, OGT / Fold change vs veh, OGT / RFU, BRD1 / Fold change vs veh, BRD1 / RFU, MARS / Fold change vs veh, MARS / RFU, ZNF655 / Fold change vs veh, ZNF655 / RFU, FAHD1 / Fold change vs veh, FAHD1 / RFU, BDP1 / Fold change vs veh, BDP1 / RFU, LRRCC1 / Fold change vs veh, LRRCC1 / RFU, ARID1A / Fold change vs veh, ARID1A / RFU, ZNF146 / Fold change vs veh, ZNF146 / RFU, ZNF330 / Fold change vs veh, ZNF330 / RFU, GPN3 / Fold change vs veh, GPN3 / RFU, C9orf123 / Fold change vs veh, C9orf123 / RFU, N4BP2L2 / Fold change vs veh, N4BP2L2 / RFU, ARFIP1 / Fold change vs veh, ARFIP1 / RFU, FAM179B / Fold change vs veh, FAM179B / RFU, BCL10 / Fold change vs veh, BCL10 / RFU, UHRF1BP1L / Fold change vs veh, UHRF1BP1L / RFU, BET1 / Fold change vs veh, BET1 / RFU, CNOT2 / Fold change vs veh, CNOT2 / RFU, ZNF268 / Fold change vs veh, ZNF268 / Fold change vs veh, ZNF507 / RFU, DGCR2 / Fold change vs veh, DGCR2 / RFU, WDSUB1 / Fold change vs veh, WDSUB1 / Fold change vs veh, HSP90B1 /// MIR3652 / RFU, ADSS / Fold change vs veh, ADSS / RFU, GK / Fold change vs veh, GK / RFU, ZNF148 / Fold change vs veh, ZNF148 / RFU, TAF9 / Fold change vs veh, TAF9 / RFU, SLC1A5 / Fold change vs veh, SLC1A5 / RFU, SLMO2 / Fold change vs veh, SLMO2 / RFU, ABCC4 / Fold change vs veh, ABCC4 / RFU, LOC101060439 /// RAP1B / Fold change vs veh, LOC101060439 /// RAP1B / RFU, RFX7 / Fold change vs veh, RFX7 / RFU, GTPBP10 / Fold change vs veh, GTPBP10 / RFU, CNEP1R1 / Fold change vs veh, CNEP1R1 / RFU, BIVM-ERCC5 /// ERCC5 / Fold change vs veh, BIVM-ERCC5 /// ERCC5 / RFU, ILF3 / Fold change vs veh, ILF3 / RFU 11762660_at / Fold change /veh 11762660_at / RFU VCAN (11757783_s_at) / Fold change /veh VCAN (11757783_s_at) / RFU DDX43 (11728927_at) / Fold change /veh DDX43 (11728927_at) / RFU KRT8 (11758188_x_at) / Fold change /veh KRT8 (11758188_x_at) / RFU NKD1 (11759106_at) / Fold change /veh NKD1 (11759106_at) / RFU SRD5A1 (11742802_a_at) / Fold change /veh SRD5A1 (11742802_a_at) / RFU TPSAB1 /// TPSB2 (11721975_s_at) / Fold change /veh TPSAB1 /// TPSB2 (11721975_s_at) / RFU GSTM3 (11746129_a_at) / Fold change /veh GSTM3 (11746129_a_at) / RFU IL23R (11737362_x_at) / Fold change /veh IL23R (11737362_x_at) / RFU TMEM51 (11727254_a_at) / Fold change /veh TMEM51 (11727254_a_at) / RFU PIWIL2 (11732686_x_at) / Fold change /veh PIWIL2 (11732686_x_at) / RFU ORM1 (11744905_x_at) / Fold change /veh ORM1 (11744905_x_at) / RFU CCDC152 (11743942_at) / Fold change /veh CCDC152 (11743942_at) / RFU ECM1 (11717891_a_at) / Fold change /veh ECM1 (11717891_a_at) / RFU IL23R (11748794_a_at) / Fold change /veh IL23R (11748794_a_at) / RFU TNFAIP8L3 (11732012_x_at) / Fold change /veh TNFAIP8L3 (11732012_x_at) / RFU MBOAT4 (11741988_at) / Fold change /veh MBOAT4 (11741988_at) / RFU 11764193_at / Fold change /veh 11764193_at / RFU TMEM53 (11763286_at) / Fold change /veh TMEM53 (11763286_at) / RFU MAGEB2 (11727129_at) / Fold change /veh MAGEB2 (11727129_at) / RFU TMEM200A (11744735_a_at) / Fold change /veh TMEM200A (11744735_a_at) / RFU CCDC152 (11751479_a_at) / Fold change /veh CCDC152 (11751479_a_at) / RFU FAM211A (11726209_a_at) / Fold change /veh FAM211A (11726209_a_at) / RFU RGS16 (11746705_a_at) / Fold change /veh RGS16 (11746705_a_at) / RFU VCAN (11755009_s_at) / Fold change /veh VCAN (11755009_s_at) / RFU RHOB (11743442_s_at) / Fold change /veh RHOB (11743442_s_at) / RFU RGS16 (11720943_a_at) / Fold change /veh RGS16 (11720943_a_at) / RFU RGS16 (11720944_at) / Fold change /veh RGS16 (11720944_at) / RFU, VPS4B / Fold change vs veh, VPS4B / RFU, CREB1 / Fold change vs veh, CREB1 / RFU, DNAJC13 / Fold change vs veh, DNAJC13 / RFU, GNAQ / Fold change vs veh, GNAQ / RFU, CDK5R1 / Fold change vs veh, CDK5R1 / RFU, ZRANB3 / Fold change vs veh, ZRANB3 / RFU, CUL4A / Fold change vs veh, CUL4A / RFU, CCNY / Fold change vs veh, CCNY / RFU, UFL1 / Fold change vs veh, UFL1 / RFU, COG3 / Fold change vs veh, COG3 / RFU, DIAPH2 / Fold change vs veh, DIAPH2 / RFU, SKA2 / Fold change vs veh, SKA2 / RFU, AFF3 / Fold change vs veh, AFF3 / RFU, LMF1 / Fold change vs veh, LMF1 / RFU, IPO11 / Fold change vs veh, IPO11 / RFU, DFFB / Fold change vs veh, DFFB / RFU, FOXP1 / Fold change vs veh, FOXP1 / RFU, CARD8 / Fold change vs veh, CARD8 / RFU, STRN3 / Fold change vs veh, STRN3 / RFU, ADK / Fold change vs veh, ADK / RFU, RASSF2 / Fold change vs veh, RASSF2 / RFU, WIPF1 / Fold change vs veh, WIPF1 / RFU, LARP1B / Fold change vs veh, LARP1B / RFU, RASA1 / Fold change vs veh, RASA1 / RFU, RB1 / Fold change vs veh, RB1 / RFU, PPFIA1 / Fold change vs veh, PPFIA1 / RFU, MAT2A / Fold change vs veh, MAT2A / RFU, CCT5 / Fold change vs veh, CCT5 / RFU, WDR92 / Fold change vs veh, WDR92 / RFU, CUX1 / Fold change vs veh, CUX1 / RFU, TTC7A / Fold change vs veh, TTC7A / RFU, TMEM135 / Fold change vs veh, TMEM135 / RFU, DEPTOR / Fold change vs veh, DEPTOR / RFU, CPM / Fold change vs veh, CPM / RFU, DNAJB6 / Fold change vs veh, DNAJB6 / RFU, CACNA2D3 / Fold change vs veh, CACNA2D3 / RFU, DTX4 / Fold change vs veh, DTX4 / RFU, TFCP2 / Fold change vs veh, TFCP2 / RFU, GMCL1 /// GMCL1P1 / Fold change vs veh, GMCL1 /// GMCL1P1 / RFU, AEBP2 / Fold change vs veh, AEBP2 / RFU, SNHG1 /// SNORD22 /// SNORD25 /// SNORD26 /// SNORD27 /// SNORD28 /// SNORD29 /// SNORD31 / Fold change vs veh, SNHG1 /// SNORD22 /// SNORD25 /// SNORD26 /// SNORD27 /// SNORD28 /// SNORD29 /// SNORD31 / Fold change (Aza/veh), C12orf56 (ProbeSet 11735607_a_at) / Fold change (ACY-1035/veh), C12orf56 (ProbeSet 11735607_a_at) / Fold change (Aza/veh), FGFR1OP (ProbeSet 11751329_s_at) / Fold change (ACY-1035/veh), FGFR1OP (ProbeSet 11751329_s_at) / Fold change (Aza/veh), VPS36 (ProbeSet 11739960_a_at) / Fold change (ACY-1035/veh), VPS36 (ProbeSet 11739960_a_at) / RFU SYPL1 (11715823_x_at) / Fold change /veh SYPL1 (11715823_x_at) / RFU IGFBP7 (11715501_s_at) / Fold change /veh IGFBP7 (11715501_s_at) / RFU REEP3 (11722064_at) / Fold change /veh REEP3 (11722064_at) / RFU IGLL1 (11728026_x_at) / Fold change /veh IGLL1 (11728026_x_at): dose or concentration left out as unconfirmed
Settings: MV-4-11 cells, 48 hours

Nc1ncn([C@@H]2O[C@H](CO)[C@@H](O)[C@H]2O)c(=O)n1 [azacitidine]
Fold change /veh GSTM3 (11746129_a_at): 1.35
